Results from patent publication US20050208058A1, “Compositions and methods for modulating cell division” (priority 2003, published 2005).
d = 2'-deoxy (DNA)

Legend:
Type in all cases: cell-based, human
RPE cells [1] = test: FACS of cells treated in tandem with two siRNAs (p53 dependence); conditions: tandem treatment sip53 then siGCP2; FIG. 6A
Method: For flow cytometry (i.e., fluorescence-activated cell sorter or FACS) experiments, siRNAs were delivered to cells as described above, and were incubated for 50-70 hours. To synchronize cells, nocodazole was added to the cells to a concentration of 5 μg/mL for 12 hours. Cells were stained with propidium iodide and analyzed by flow cytometry (FACSCAN; Becton Dickinson) using FLOJO® software (Tree Star, Inc., Ashland, Oreg.).
(§1) A number of experiments were conducted to determine if p53 is required for the cell cycle arrest phenotype described herein. FACS analysis of tandem siRNA-treated cells was performed as described in Example 2. BrDU and DAPI imaging was performed as described in Example 2. Intracellular p53 was visualized using anti-p53 antibody that is specific for activated p53 (i.e., p53 phosphorylated at Serine 33) (“α-Pser33-p53” provided by Yoichi Taya and described in Kishis et al., J. Biol. Chem., 276:39115-3922, 2001)
In FIG. 6A each line tracing represents FACS data from cells treated in tandem with the siRNAs directed to the gene products indicated above the line. Cells were first treated with siRNA directed to the gene product to the left of the slash. Up to 24 hours later, siRNA directed to the gene product to the right of the slash was added. […] 12 hours before collecting the cells, nocodazole was added to the cells analyzed in the bottom three line tracings. […]

RPE cells [2] = test: BrDU staining of cells treated in tandem with two siRNAs (p53 dependence); conditions: FIG. 6B
Method: (§2) To further study the effects of silencing centrosomal genes, the following cell cycle experiments were performed using RPE cells. In immunofluorescence experiments, cells were delivered by OLIGOFECTAMINE in a media solution containing between 1-100 nanomolar concentration of siRNAs. After 4 hours of incubation with lipofectamine, cells were washed, and cell cycle progression was assayed by (i) treating cells with 5-Bromo-2′-deoxyuridine (BrDU from Sigma, St Louis, Mo.) for 24 hours and staining for BrDU or (ii) staining cells with antibody to Ki-67 (BD Biosciences) according to manufacturer's instructions. BrDU treatment and staining were performed as follows: after 50-70 hours incubation with siRNA, BrDU was added to cells at a final concentration of 5 μg/ml. Cells were fixed in −20° C. methanol and then treated with 2N HCL at 22° C. for 30 minutes, incubated with 1:500 mouse anti-BrdU antibody (Becton Dickinson, Palo Alto, Calif.), and labeled with 1:1,000 goat FITC-mouse antibody (Molecular Probes, Inc.). Cells were also treated with 4′,6-diamidino-2-phenylindole (DAPI) (Molecular Probes) according to the manufacturer's instructions. Cells were prepared, imaged, and the resulting images were deconvolved as described in Example 1.
as §1

p53 = test: Western blot of p53 in cytoplasmic and nuclear fractions; conditions: relative to mock or silamin transfected cells; FIG. 6D
From the text: The Western blot shown cytoplasmic (cyt), and nuclear (nuc) cell fractions blotted with an antibody to p53 (from Callbiochem, San Diego, Calif.). Nuclear fractions were blotted with an antibody for H1 as a control for loading.

CDK2 = CDK2 kinase assay from siRNA-treated cells; conditions: after sustained siRNA treatment, vs siRNA to laminin; FIG. 2C
Method: Kinase assays were done on RPE cells treated with siRNAs as described above. Treated cells were lysed in 1% NP-40 lysis buffer (NP-40 buffer: 20 mM NaPO4 pH 7.4, 1% NP-40, 250 mM NaCl, 5 mM ethylenediaminetetraacetic acid (EDTA), 5 mM dithiothreitol (DTT), 1 mM phenylmethylsulfonyl fluoride, 2 μg/ml leupeptin, and 1.5 μg/ml aprotinin) supplemented with 25 mM-glycerophosphate. For measurement of CDK2-associated activity in vitro, the complexes were immunoprecipitated for 2 hours at 4° C. using anti-cylin A antibody (Santa Cruz Biotechnology). Immunocomplexes were bound to protein A-Sepharose beads for an additional hour at 4° C. and washed four times with lysis buffer followed by one wash with the kinase buffer (20 mM Tris-HCl pH 7.5, 50 mM KCl, 7.5 mM MgCl 2, 1 mM DTT, 25 mM-glycerophosphate, 1 mM phenylmethylsulfonyl fluoride, 2 μg/ml leupeptin, and 1.5 μg/ml aprotinin). […] Phosphorylated proteins were analyzed on 10% SDS-polyacrylamide gels followed by autoradiography and quantified by phosphorimaging (Molecular Imager GS-250; Bio-Rad, Hercules, Calif.).
FIG. 2C is a graph quantifying the results of CDK2 kinase assays from cells treated with siRNA directed to laminin or pericentrin B. CDK2 activity is required for proliferating cells through to progress through the G1 stage of the cell cycle.

RPE cells [3] = test: BrDU incorporation after siRNA treatment and nocodazole synchronization; conditions: relative to control cells (siRNA to lamin), after nocodazole release; FIG. 2A
Method: as §2
Upon release from nocodazole treatment, proliferating cells typically resume cell cycle progression. Chromosomal DNA in the cells was imaged using DAPI (faint ghost-like staining) and/or BrDU (brighter staining). Although DAPI can be used to visualize DNA at any stage of the cell cycle, BrDU is only incorporated into newly synthesized DNA only during S-phase. Thus, BrDU incorporation can be used as a marker of cells that progress through at least one S-phase of the cell cycle. Control cells in this experiment were treated with siRNA to lamin.

Row | Sequence | effect of pre-treatment on siGCP2-mediated block of the nocodazole shift (RPE cells [1]) | effect of pretreatment on number of cells that divided after sipericentrin or siGCP2 (RPE cells [2]; sip53 pretreatment, 6C) | nuclear p53 (Western blot) (p53) | CDK2 expression and/or activity (CDK2) | cells incorporating BrDU (RPE cells [2]; tandem treatment silaminin then indicated siRNA, vs silamin/silamin) | incorporation of BrDU into chromosomal material (RPE cells [3])
1 | GGACAAGGGUUGGGCUGGG (siRNA; RNA, 3' dTdT, backbone not given here) [sip53, siRNA directed to p53, reference compound] | inhibited the siGCP-mediated block of the nocodazole shift | increased the number of cells that divided | nuclear p53 is activated | – | – | –
2 | UUGGAACAGCUGCAGCAGA (siRNA; RNA, 3' dTdT, backbone not given here) [pericentrin B, siRNA directed only to pericentrin B (Kendrin)] | – | – | – | greatly diminished | substantially fewer | clearly inhibited incorporation of BrDU
